Reference: ChEMBL document CHEMBL3804813, “Discovery and optimization of new benzofuran derivatives against p53-independent malignant cancer cells through inhibition of HIF-1 pathway” (Bioorg Med Chem Lett, 2016)
The source made the active and inactive calls. The rule behind the calls is not given here.

Legend:
[1] = Antiproliferative activity against human HCT116 cells expressing wild type p53 assessed as growth inhibition after 72 hrs by MTT assay; assay type: functional, cell-based; conditions: HCT-116, 72 h
[2] = Antiproliferative activity against human p53-null HCT116 cells assessed as growth inhibition after 72 hrs by MTT assay; assay type: functional, cell-based; conditions: HCT-116, 72 h
[3] = target: Hypoxia-inducible factor 1-alpha (Homo sapiens) (UniProt Q16665); test: Inhibition of HIF-1 (unknown origin) expressed in human MCF7 cells co-transfected with hypoxia reporter plasmid p(HRE)3-Luc at 20 uM measured under hypoxia condition after 24 hrs by dual-luciferase reporter assay; assay type: cell-based
[4] = Decrease in procaspase-3 expression level in human p53-null HCT116 -/- cells at 10 uM after 24 hrs by western blot analysis; assay type: functional, cell-based; conditions: HCT-116
[5] = Decrease in procaspase-9 expression level in human p53-null HCT116 -/- cells at 10 uM after 24 hrs by western blot analysis; assay type: functional, cell-based; conditions: HCT-116
[6] = Antiproliferative activity against human MDA-MB-435S cells assessed as growth inhibition after 72 hrs by MTT assay; assay type: functional, cell-based
MCF7 = test: Antiproliferative activity against human MCF7 cells assessed as growth inhibition after 72 hrs by MTT assay; assay type: functional, cell-based; conditions: MCF7, 72 h
[7] = Decrease in procaspase-9 expression level in human p53-null HCT116 -/- cells at 1 to 20 uM after 24 hrs by western blot analysis; assay type: functional, cell-based; conditions: HCT-116
[8] = Cell cycle arrest in human p53-null HCT116 -/- cells assessed as accumulation at G1-phase at 10 uM after 12 hrs by propidium iodide staining based flow cytometry (reference value: 27.78%); assay type: functional; conditions: HCT-116
[9] = Cell cycle arrest in human p53-null HCT116 -/- cells assessed as accumulation at S-phase at 10 uM after 12 hrs by propidium iodide staining based flow cytometry (reference value: 69.57%); assay type: functional; conditions: HCT-116
[10] = Cell cycle arrest in human p53-null HCT116 -/- cells assessed as accumulation at G1-phase after 12 hrs by propidium iodide staining based flow cytometry; assay type: functional; conditions: HCT-116
[11] = Cell cycle arrest in human p53-null HCT116 -/- cells assessed as accumulation at S-phase at 20 uM after 12 hrs by propidium iodide staining based flow cytometry (reference value: 69.57%); assay type: functional; conditions: HCT-116
HCT-116 [12] = test: Induction of apoptosis in human p53-null HCT116 -/- cells assessed as morphological change at 5 to 20 uM after 48 hrs by Annexin V-FITC/propidium iodide staining based flow cytometry; assay type: functional, cell-based
HCT-116 [13] = test: Induction of apoptosis in human p53-null HCT116 -/- cells assessed as early apoptotic cells at 10 uM after 48 hrs by Annexin V-FITC/propidium iodide staining based flow cytometry (reference value: 6.96%); assay type: functional
[14] = Cell cycle arrest in human p53-null HCT116 -/- cells assessed as accumulation at G1-phase at 5 uM after 12 hrs by propidium iodide staining based flow cytometry (reference value: 27.78%); assay type: functional; conditions: HCT-116
[15] = Decrease in procaspase-3 expression level in human p53-null HCT116 -/- cells at 1 to 20 uM after 24 hrs by western blot analysis; assay type: functional, cell-based; conditions: HCT-116
HCT-116 [16] = test: Induction of apoptosis in human p53-null HCT116 -/- cells assessed as late apoptotic cells at 20 uM after 48 hrs by Annexin V-FITC/propidium iodide staining based flow cytometry ( Rvb = 3.11%); assay type: functional
HCT-116 [17] = test: Induction of apoptosis in human p53-null HCT116 -/- cells assessed as viable cells at 5 uM after 48 hrs by Annexin V-FITC/propidium iodide staining based flow cytometry (reference value: 85.26%); assay type: functional; conditions: HCT-116, 48 h, read-out: Activity
[18] = Cell cycle arrest in human p53-null HCT116 -/- cells assessed as accumulation at G2-phase at 10 uM after 12 hrs by propidium iodide staining based flow cytometry (reference value: 2.35%); assay type: functional; conditions: HCT-116
HCT-116 [19] = test: Induction of apoptosis in human p53-null HCT116 -/- cells assessed as early apoptotic cells at 5 uM after 48 hrs by Annexin V-FITC/propidium iodide staining based flow cytometry (reference value: 6.96%); assay type: functional
HCT-116 [20] = test: Induction of apoptosis in human p53-null HCT116 -/- cells assessed as necrotic cells at 5 uM after 48 hrs by Annexin V-FITC/propidium iodide staining based flow cytometry (reference value: 4.67%); assay type: functional
HCT-116 [21] = test: Induction of apoptosis in human p53-null HCT116 -/- cells assessed as viable cells at 10 uM after 48 hrs by Annexin V-FITC/propidium iodide staining based flow cytometry (reference value: 85.26%); assay type: functional; conditions: HCT-116, 48 h, read-out: Activity
[22] = Cell cycle arrest in human p53-null HCT116 -/- cells assessed as accumulation at G2-phase at 5 uM after 12 hrs by propidium iodide staining based flow cytometry (reference value: 2.35%); assay type: functional; conditions: HCT-116
[23] = Cell cycle arrest in human p53-null HCT116 -/- cells assessed as accumulation at S-phase at 5 uM after 12 hrs by propidium iodide staining based flow cytometry (reference value: 69.57%); assay type: functional; conditions: HCT-116
HCT-116 [24] = test: Induction of apoptosis in human p53-null HCT116 -/- cells assessed as late apoptotic cells after 48 hrs by Annexin V-FITC/propidium iodide staining based flow cytometry; assay type: functional, cell-based
[25] = Cell cycle arrest in human p53-null HCT116 -/- cells assessed as accumulation at G2-phase at 20 uM after 12 hrs by propidium iodide staining based flow cytometry (reference value: 2.35%); assay type: functional; conditions: HCT-116
[26] = Cell cycle arrest in human p53-null HCT116 -/- cells assessed as accumulation at G1-phase at 20 uM after 12 hrs by propidium iodide staining based flow cytometry (reference value: 27.78%); assay type: functional; conditions: HCT-116
HCT-116 [27] = test: Induction of apoptosis in human p53-null HCT116 -/- cells assessed as early apoptotic cells at 20 uM after 48 hrs by Annexin V-FITC/propidium iodide staining based flow cytometry (reference value: 6.96%); assay type: functional
[28] = target: Hypoxia-inducible factor 1-alpha (Homo sapiens) (UniProt Q16665); test: Inhibition of HIF1 in human MCF7 cells assessed as reduction in VEGF mRNA expression after 24 hrs under hypoxia condition by real-time PCR analysis; assay type: cell-based
HCT-116 [29] = test: Induction of apoptosis in human p53-null HCT116 -/- cells assessed as late apoptotic cells at 10 uM after 48 hrs by Annexin V-FITC/propidium iodide staining based flow cytometry (reference value: 3.11%); assay type: functional
HCT-116 [30] = test: Induction of apoptosis in human p53-null HCT116 -/- cells assessed as viable cells at 20 uM after 48 hrs by Annexin V-FITC/propidium iodide staining based flow cytometry (reference value: 85.26%); assay type: functional; conditions: HCT-116, 48 h, read-out: Activity
HCT-116 [31] = test: Induction of apoptosis in human p53-null HCT116 -/- cells assessed as late apoptotic cells at 5 uM after 48 hrs by Annexin V-FITC/propidium iodide staining based flow cytometry (reference value: 3.11%); assay type: functional
HCT-116 [32] = test: Induction of apoptosis in human p53-null HCT116 -/- cells assessed as necrotic cells at 10 uM after 48 hrs by Annexin V-FITC/propidium iodide staining based flow cytometry (reference value: 4.67%); assay type: functional
HCT-116 [33] = test: Induction of apoptosis in human p53-null HCT116 -/- cells assessed as necrotic cells at 20 uM after 48 hrs by Annexin V-FITC/propidium iodide staining based flow cytometry (reference value: 4.67%); assay type: functional
HCT-116 [34] = test: Induction of apoptosis in human p53-null HCT116 -/- cells assessed as early apoptotic cells after 48 hrs by Annexin V-FITC/propidium iodide staining based flow cytometry; assay type: functional, cell-based

Sequence of Hypoxia-inducible factor 1-alpha (Homo sapiens) (Q16665 whole entry, looked up): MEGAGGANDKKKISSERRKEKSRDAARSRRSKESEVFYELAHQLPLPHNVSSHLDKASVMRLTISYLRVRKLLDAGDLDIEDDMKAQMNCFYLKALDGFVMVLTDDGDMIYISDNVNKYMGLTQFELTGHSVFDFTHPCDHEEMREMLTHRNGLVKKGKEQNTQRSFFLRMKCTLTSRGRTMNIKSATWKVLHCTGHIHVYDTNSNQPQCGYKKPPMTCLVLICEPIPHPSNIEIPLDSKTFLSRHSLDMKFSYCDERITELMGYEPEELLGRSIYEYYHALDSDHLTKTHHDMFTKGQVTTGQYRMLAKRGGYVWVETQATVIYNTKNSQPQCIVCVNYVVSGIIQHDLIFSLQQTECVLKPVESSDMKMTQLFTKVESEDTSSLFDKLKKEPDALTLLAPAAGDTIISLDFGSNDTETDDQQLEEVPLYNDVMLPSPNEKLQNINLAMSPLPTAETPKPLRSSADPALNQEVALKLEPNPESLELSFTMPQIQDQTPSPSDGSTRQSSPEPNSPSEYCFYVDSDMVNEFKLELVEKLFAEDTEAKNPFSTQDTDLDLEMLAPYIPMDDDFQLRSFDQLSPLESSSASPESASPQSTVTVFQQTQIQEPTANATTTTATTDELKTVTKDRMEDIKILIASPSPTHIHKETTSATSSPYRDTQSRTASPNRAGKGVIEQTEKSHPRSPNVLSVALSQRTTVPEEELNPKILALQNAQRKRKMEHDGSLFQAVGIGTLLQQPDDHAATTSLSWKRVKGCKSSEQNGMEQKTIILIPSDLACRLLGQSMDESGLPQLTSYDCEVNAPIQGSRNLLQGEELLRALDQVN

CCOC(=O)c1oc2ccc(NS(=O)(=O)c3ccc(Br)cc3)cc2c1C
IC50 [1]: 9.31 µM
IC50 [2]: > 40 µM

CCOC(=O)c1oc2ccc(N(Cc3ccccc3)S(=O)(=O)c3ccc(C)cc3)cc2c1C
IC50 [1]: > 40 µM
IC50 [2]: > 40 µM

CCOC(=O)c1oc2ccc(N(Cc3ccccc3)S(=O)(=O)c3ccc([N+](=O)[O-])cc3)cc2c1C
IC50 [1]: > 40 µM
IC50 [2]: > 40 µM

CCOC(=O)c1oc2ccc(N(Cc3ccccc3)S(=O)(=O)c3cccc(Br)c3)cc2c1C
IC50 [1]: > 40 µM
IC50 [2]: > 40 µM

COc1ccc(C2=N[C@@H](c3ccc(Cl)cc3)[C@@H](c3ccc(Cl)cc3)N2C(=O)N2CCNC(=O)C2)c(OC(C)C)c1 [NUTLIN-3]
inhibition [3]: < 10%
inhibition [4]: inactive
IC50 [1]: 5.21 µM
inhibition [5]: inactive
IC50 [6]: 29.6 µM
IC50 [2]: 21.5 µM
IC50 (MCF7): 5.01 µM

Cc1c(C(=O)NCCN(C)C)oc2ccc(N(Cc3ccccc3)S(=O)(=O)c3ccc(Cl)cc3)cc12
inhibition [3]: < 10%
IC50 [1]: 7.06 µM
IC50 [6]: 9.24 µM
IC50 [2]: 6.31 µM
IC50 (MCF7): 6.72 µM

CCOC(=O)c1oc2ccc(N(Cc3ccccc3)S(=O)(=O)c3ccc(Cl)cc3)cc2c1C
IC50 [1]: 4.86 µM
IC50 [2]: 23.2 µM

Cc1c(C(=O)NCCN(C)C)oc2ccc(N(Cc3ccc(Cl)cc3)S(=O)(=O)c3ccc(Cl)cc3)cc12
inhibition [3]: 12.7%
IC50 [1]: 5.38 µM
IC50 [6]: 10.8 µM
IC50 [2]: 3.87 µM
IC50 (MCF7): 5.84 µM

CCOC(=O)c1oc2ccc(N(Cc3ccccc3)S(=O)(=O)c3ccc(OC)cc3)cc2c1C
IC50 [1]: > 40 µM
IC50 [2]: > 40 µM

Cc1c(C(=O)O)oc2ccc(N(Cc3ccccc3)S(=O)(=O)c3ccc(Br)cc3)cc12
IC50 [1]: 7.09 µM
IC50 [2]: 20 µM

Cc1c(C(=O)O)oc2ccc(N(Cc3ccc(Cl)cc3)S(=O)(=O)c3ccc(Cl)cc3)cc12
IC50 [1]: 3.67 µM
IC50 [2]: 27.2 µM

CNCCNC(=O)c1oc2ccc(N(Cc3ccccc3)S(=O)(=O)c3ccc(Cl)cc3)cc2c1C
inhibition [7]: Active
Activity [8]: 52.8%
Activity [9]: 42.9%
Activity [10]: Dose-dependent effect
Activity [11]: 32.2%
Activity (HCT-116 [12]): Active
Activity (HCT-116 [13]): 55.86%
inhibition [3]: 47.3%
Activity [14]: 36.2%
inhibition [15]: Active
Activity (HCT-116 [16]): 34.63%
viability at 5 µM (HCT-116 [17]): 77.3%
Activity [18]: 4.26%
IC50 [1]: 3 µM
Activity (HCT-116 [19]): 15.42%
Activity (HCT-116 [20]): 0.5%
viability at 10 µM (HCT-116 [21]): 28.1%
Activity [22]: 3.6%
Activity [23]: 60.2%
Activity (HCT-116 [24]): Dose-dependent effect
IC50 [6]: 4.71 µM
Activity [25]: 8.1%
Activity [26]: 59.7%
IC50 [2]: 2.91 µM
Activity (HCT-116 [27]): 62.28%
inhibition [28]: Dose-dependent effect
Activity (HCT-116 [29]): 14.99%
viability at 20 µM (HCT-116 [30]): 3.07%
Activity (HCT-116 [31]): 6.74%
Activity (HCT-116 [32]): 1.05%
IC50 (MCF7): 4.56 µM
Activity (HCT-116 [33]): 0.02%
Activity (HCT-116 [34]): Dose-dependent effect

Cc1c(C(=O)O)oc2ccc(N(Cc3ccccc3)S(=O)(=O)c3ccc(Cl)cc3)cc12
IC50 [1]: 9.13 µM
IC50 [2]: 33.4 µM

CCOC(=O)c1oc2ccc(N(Cc3ccccc3)S(=O)(=O)c3ccc(Br)cc3)cc2c1C
IC50 [1]: 9.46 µM
IC50 [2]: 8.7 µM

COc1ccc(N(Cc2ccccc2)S(=O)(=O)c2ccc(Cl)cc2)cc1
IC50 [1]: 18.3 µM
IC50 [2]: > 40 µM

CCOC(=O)c1oc2ccc(NS(=O)(=O)c3ccc(F)cc3)cc2c1C
IC50 [1]: 10.5 µM
IC50 [2]: > 40 µM
